Like-named read-outs stand apart in the source and are kept apart here.
Legend:
[1] = logP by HPLC on reversed-phase column (EEC Directive 79/831 Annex V.A8); format: physicochemical; conditions: for chromatographic logP: reversed-phase HPLC column (C18)
Description: Temperature: 40° C.; Mobile phases: 0.1% aqueous formic acid and acetonitrile; linear gradient from 10% acetonitrile to 90% acetonitrile.
Calibration was carried out using unbranched alkan-2-ones (comprising 3 to 16 carbon atoms) with known logP values (determination of the logP values by the retention times using linear interpolation between two successive alkanones).

Myzus persicae = test: In vivo protective test on Myzus persicae (MYZUPE); conditions: Chinese cabbage leaf-disks, all instars, spray
Description: In Vivo Protective Test on Myzus persicae (MYZUPE)
Solvent: 78 parts by weight acetone
• 1.5 parts by weight dimethylformamide Dye: 0.5 parts by weight alkylarylpolyglcolether
To produce a suitable preparation of active compound, 1 part by weight of active compound is mixed with the stated amount of solvent and emulsifier, and the concentrate is diluted with emulsifier-containing water to the desired concentration.
Chinese cabbage (Brassica pekinesis) leaf-disks infected with all instars of the green peach aphid (Myzus persicae), are sprayed with a preparation of the active ingredient at the desired concentration.
After the specified period of time, mortality in % is determined. 100% means that all aphids have been killed; 0% means that none of the aphids have been killed.

Aedes aegypti larvae = test: In vivo protective test on Aedes aegypti (AEDSAE U)
Description: In Vivo Protective Test on Aedes Aegypti (AEDSAE U)
Solvent: 1% N-methylpyrrolidone (NMP)
• 1% diacetonealcohol Dye: brillantsulfoflavin for staining water
To produce a suitable preparation of the active compound, the active compound is mixed with the stated amount of solvent, and the concentrate is diluted with staining water to the desired concentration.
Aedes aegypti larvae are pipetted with a preparation of active ingredient of the desired concentration.
After the specified period of time, mortality in % is determined. 100% means that all larvae have been killed, a 0% means that none of the larvae have been killed.

[2] = HPLC, C18, 40° C., 0.1% aqueous formic acid and acetonitrile

SMILES | log P [1, 2] | activity (mortality) (Myzus persicae) | other results
CCN(C)C=Nc1cc(C)c(OCc2cccc(OCC(F)(F)F)c2)cc1C [Compound 49] | 2.21 | good activity | 
CCN(C)C=Nc1cc(C)c(OCc2cc(Cl)cc(C(F)(F)F)c2)cc1C [Compound 19] | 2.54 | good activity | 
CCN(C)C=Nc1cc(C)c(OCc2ccc(C)c(C)c2)cc1C [Compound 64] | 2.23 | good activity | 
CCN(C)C=Nc1cc(C)c(CCc2cc(C(F)(F)F)cc(C(F)(F)F)c2)cc1C [Compound 35] | 2.79 | good activity | 
CCN(C)C=Nc1cc(C)c(OCc2ccc(Cl)cc2)cc1C [Compound 1] | 2.14 |  | activity (mortality) (Aedes aegypti larvae): good activity
CCN(C)C=Nc1cc(C)c(OCc2ccccc2SC(F)(F)F)cc1C [Compound 68] | 2.36 | good activity | 
CCN(C)C=Nc1cc(C)c(OCc2ccc(C(F)(F)F)cc2Cl)cc1C [Compound 25] | 2.47 | good activity | 
CCN(C)C=Nc1cc(C)c(OCc2cccc(Br)c2)cc1C [Compound 65] | 2.18 | good activity | 
CCN(C)C=Nc1cc(C)c(OC(C)c2cccc(Cl)c2)cc1C (stereo not drawn) [Compound 30] | 2.23 | good activity | 
CCN(C)C=Nc1cc(C)c(OCc2ccc(Oc3ccc(Cl)cc3)cc2)cc1C [Compound 73] | 2.8 | good activity | 
CCN(C)C=Nc1cc(C)c(OCc2cc(C(F)(F)F)ccc2Cl)cc1C [Compound 20] | 2.44 | good activity | 
CCN(C)/C=N/c1cc(C)c(OCc2cccc(C(F)(F)F)c2)cc1C [Compound 9, N′-(2,5-dimethyl-4-{[3-(trifluoromethyl)benzyl]oxy}phenyl)-N-ethyl-N-methylimidoformamide] |  |  | chromatographic logP ([1]; pH 2.3, read-out: log P (pH 2.3)): 2.24; chromatographic logP ([1]; HPLC, C18, 40° C., 0.1% aqueous formic acid and acetonitrile, read-out: log P): 2.24; activity (mortality) (Aedes aegypti larvae): good activity
CCN(C)C=Nc1cc(C)c(OCc2ccc(Oc3ccc(F)cc3)cc2)cc1C [Compound 52] | 2.8 | good activity | 
CCN(C)C=Nc1cc(C)c(OCc2ccc(C(F)(F)F)cc2)cc1C [Compound 14] | 2.28 |  | activity (mortality) (Aedes aegypti larvae): good activity
CCN(C)C=Nc1cc(C)c(OCc2cc(C)ccc2C)cc1C [Compound 56] | 2.23 | good activity | 
CCN(C)C=Nc1cc(C)c(OCc2cccc(SC(F)(F)F)c2)cc1C [Compound 69] | 2.45 | good activity | 
CCN(C)C=Nc1cc(C)c(OCc2ccc(OC(F)F)cc2)cc1C [Compound 24] | 2.06 |  | 
CCN(C)C=Nc1cc(C)c(OCc2c(Cl)cccc2Cl)cc1C [Compound 3] | 2.05 | good activity | activity (mortality) (Aedes aegypti larvae): good activity
CCN(C)C=Nc1cc(C)c(OCc2cccc(C)c2C)cc1C [Compound 89] | 2.29 |  | 
CCN(C)C=Nc1cc(C)c(OCc2ccccc2Cl)cc1C [Compound 33] | 2.08 |  | 
CCN(C)C=Nc1cc(C)c(OCc2cc(F)ccc2F)cc1C [Compound 59] | 1.99 |  | 
CCN(C)C=Nc1cc(C)c(OCc2cc(C)c(C)cc2Cl)cc1C [Compound 47] | 2.42 |  | 
CCN(C)C=Nc1cc(C)c(OCc2ccc(C(=O)OC)cc2)cc1C [Compound 53] | 1.9 |  | 
CCN(C)C=Nc1cc(C)c(OCc2ccc3ccccc3c2)cc1C [Compound 62] | 2.29 |  | 
Cc1cc(C)cc(COc2cc(C)c(N=CN3CCCCC3)cc2C)c1 [Compound 99] | 2.42 |  | 
Cc1cc(OCc2cccc(SC(F)(F)F)c2)c(C)cc1N=CN1CCCCC1 [Compound 114] | 2.48 |  | 
Cc1cc(OCc2ccccc2C(F)(F)F)c(C)cc1N=CN1CCCCC1 [Compound 123] | 2.29 |  | 

SMILES | log P [1, 2] | activity (mortality) (Myzus persicae) | other results
CCN(C)C=Nc1cc(C)c(OCc2ccc(C(C)C)cc2)cc1C [Compound 82] | 2.51 |  | 
CCN(C)C=Nc1cc(C)c(OC(C)c2c(Cl)cccc2Cl)cc1C (stereo not drawn) [Compound 4] | 2.52 |  | activity (mortality) (Aedes aegypti larvae): good activity
CCN(C)C=Nc1cc(C)c(OCc2ccccc2OC(F)F)cc1C [Compound 26] | 2.03 |  | 
CCN(C)C=Nc1cc(C)c(OC(C)c2ccc(Cl)cc2)cc1C (stereo not drawn) [Compound 31] | 2.26 | good activity | 
CCN(C)C=Nc1cc(C)c(OCc2c(F)cccc2Cl)cc1C [Compound 61] | 2.09 | good activity | 
CCN(C)C=Nc1cc(C)c(CCc2ccc(F)cc2)cc1C [Compound 42] | 2.05 |  | 
CCN(C)C=Nc1cc(C)c(OCc2ccc(Cl)cc2Cl)cc1C [Compound 55] | 2.33 |  | 
CCN(C)C=Nc1cc(C)c(OCc2ccc(Cl)c(C(F)(F)F)c2)cc1C [Compound 28] | 2.47 |  | 
CCN(C)C=Nc1cc(C)c(OCc2ccc(OCc3ccccc3)cc2)cc1C [Compound 79] | 2.51 |  | 
CCN(C)C=Nc1cc(C)c(OCc2ccc(Cl)cc2C(F)(F)F)cc1C [Compound 18] | 2.52 | good activity | activity (mortality) (Aedes aegypti larvae): good activity
Cc1cc(OCc2ccccc2Cl)c(C)cc1N=CN1CCCCC1 [Compound 106] | 2.18 |  | 
CCN(C)C=Nc1cc(C)c(OCc2ccccc2OC(F)(F)F)cc1C [Compound 16] | 2.28 | good activity | 
Cc1cc(OCc2ccccc2F)c(C)cc1N=CN1CCCCC1 [Compound 100] | 2.09 |  | 
Cc1cc(OCc2cccc(OC(F)(F)F)c2)c(C)cc1N=CN1CCCCC1 [Compound 113] | 2.39 |  | 
Cc1cc(OCc2ccccc2OC(F)(F)F)c(C)cc1N=CN1CCCCC1 [Compound 111] | 2.33 |  | 
CCN(C)C=Nc1cc(C)c(OCc2cccc(C=NOC)c2)cc1C [Compound 12] | 2.07 |  | 
Cc1ccc(C)c(COc2cc(C)c(N=CN3CCCCC3)cc2C)c1 [Compound 91] | 2.33 |  | 
CCN(C)C=Nc1cc(C)c(OCc2ccc(Cl)c(Cl)c2)cc1C [Compound 13] | 2.38 | good activity | activity (mortality) (Aedes aegypti larvae): good activity
Cc1cc(OCc2ccc(C(F)(F)F)cc2)c(C)cc1N=CN1CCCCC1 [Compound 109] | 2.33 |  | 
CCN(C)C=Nc1cc(C)c(CCc2ccc(Cl)cc2)cc1C [Compound 40] | 2.27 |  | 
CCN(C)C=Nc1cc(C)c(CCc2cccc(Cl)c2)cc1C [Compound 36] | 2.2 |  | 
CCN(C)C=Nc1cc(C)c(OC(C)c2ccccc2Cl)cc1C (stereo not drawn) [Compound 29] | 2.24 | good activity | activity (mortality) (Aedes aegypti larvae): good activity
CCN(C)C=Nc1cc(C)c(OCc2ccc(Oc3ccc(SC)cc3)cc2)cc1C [Compound 72] | 2.74 | good activity | 
CCN(C)C=Nc1cc(C)c(OCc2cc(OC)c(OC)cc2Cl)cc1C [Compound 63] | 1.99 |  | 
CCN(C)C=Nc1cc(C)c(OCc2cccc(F)c2)cc1C [Compound 80] | 1.99 |  | 
CCN(C)C=Nc1cc(C)c(CCc2ccccc2Cl)cc1C [Compound 37] | 2.26 |  | 
CCN(C)C=Nc1cc(C)c(OCc2cccc(I)c2)cc1C [Compound 85] | 2.42 |  | 

Reference: patent publication US7855309B2, “Pesticide benzyloxy- and phenetyl-substituted phenyl-amidine derivatives” (Bayer CropScience AG, priority 2005, dated 2010)
